Assay results from US5464617A, “β-lactam compounds” (Hoffmann-La Roche Inc., priority 1994, dated 1995).
Structures can show the parent of a compound that is named as a salt.

Tests used:
[1] = test system: Citrobacter freundii 1982; assay: MIC in vitro of a 1:4 combination of ceftriaxone with a compound of formula I (Test D); assay type: cell-based; settings: for MIC C. freundii 1982 (D): test D; for MIC C. freundii 1982: Table 2
Protocol: The minimum inhibitory concentration in vitro ([…]) of a 1:4 combination of ceftriaxone with a compound of formula I against Citrobacter freundii 1982 was measured and compiled in Table 2 hereinafter.

E. coli 1346 = assay: Antibacterial activity of the products per se, serial dilution method in liquid medium (Test E); assay type: cell-based; settings: product per se; for MIC E. coli 1346 (E): test E; for MIC E. coli 1346: Table 3, liquid medium
Description: The antibacterial activity of the products per se is illustrated on the basis of Table 3 hereinafter, the minimum inhibitory concentration […] in vitro against E. coli 1346 being determined using the serial dilution method in liquid medium: […]

[2] = Table 4, 1:4 combination of ceftriaxone with the compound
[3] = 1:4 combination of ceftriaxone with the compound

| MIC C. freundii 1982 (D) [1, 2] [µg/mL] | MIC E. coli 1346 (E) (E. coli 1346; Table 4) [µg/mL] | SMILES | other results |
| --- | --- | --- | --- |
| 2 | 4 | O=C(NCc1ccncc1)OCC1=C(C(=O)O)N2C(=O)[C@H]3NC[C@@H](C1)[C@H]32 [Example 99, (1aS,3aR,6bR)-1-Oxo-5-(pyridin-4-ylmethylcarbamoyloxymethyl)-1a,2,3,3a,4,6b-hexahydro-1H-2,6a-diazacyclobut[cd]indene-6-carboxylic acid trifluoroacetate] | – |
| 0.5 | 1 | Cc1nnc(SCC2=C(C(=O)O)N3C(=O)[C@@H]4[C@H]3[C@H](C2)CN4C=O)s1 [65(e), (1aS,3aR,6bR)-2-Formyl-5-(5-methyl-1,3,4-thiadiazol-2-ylsulphanylmethyl)-1-oxo-1a,2,3,3a,4,6b-hexahydro-1H-2,6a-diazacyclobut[cd]indene-6-carboxylicacid sodium salt] | – |
| 2 | 16 | CC(=O)NCC1=C(C(=O)O)N2C(=O)[C@@H]3[C@H]2[C@H](C1)CN3C(=O)C(F)(F)F [Example 86, (1aS,3aR,6bR)-5-Acetylaminomethyl-1-oxo-2-trifluoroacetyl-1a,2,3,3a,4,6b-hexahydro-1H-2,6a-diazacyclobut[cd]indene-6-carboxylic acid sodium salt] | – |
| 4 | 16 | CS(=O)(=O)NCC1=C(C(=O)O)N2C(=O)[C@H]3NC[C@@H](C1)[C@H]32 [Example 87, (1aS,3aR,6bR)-5-Methylsulphonylaminomethyl-1-oxo-1a,2,3,3a,4,6b-hexahydro-1H-2,6a-diazacyclobut[cd]indene-6-carboxylic acid trifluoroacetate] | – |
| 32 | 32 | O=CN1C[C@H]2OC(CSc3nnnn3CC(=O)NC3CC3)=C(C(=O)O)N3C(=O)[C@@H]1[C@@H]23 [Example 37, (1aS,3aR,6bS)-5-(1-Cyclopropylcarbamoylmethyl-1H-tetrazol-5-ylsulphanylmethyl)-2-formyl-1-oxo-1,1a,2,3,3a,6b-hexahydro-4-oxa-2,6a-diazacyclobut[cd]indene-6-carboxylic acid sodium salt] | – |
| 1 | > 32 | O=C([O-])C[n+]1ccc(SCC2=C(C(=O)O)N3C(=O)[C@@H]4[C@H]3[C@H](C2)CN4C(=O)NCc2ccccc2)cc1 [Example 51, (1aS,3aR,6bR)-[4-(2-Benzylcarbamoyl-6-carboxy-1-oxo-1a,2,3,3a,4,6b-hexahydro-1H-2,6a-diazacyclobut[cd]inden-5-ylmethylsulphanyl)-pyridin-2-ylio]-acetate sodium salt] | – |
| 0.5 | 8 | Cc1nnc(SCC2=C(C(=O)O)N3C(=O)[C@@H]4[C@H]3[C@H](C2)CN4C(=O)CSCC(N)=O)s1 [65(g), (1aS,3aR,6bR)-2-Carbamoylmethylsulphanylacetyl-5-(5-methyl-1,3,4-thiadiazol-2-ylsulphanylmethyl)-1-oxo-1a,2,3,3a,4,6b-hexahydro-1H-2,6a-diazacyclobut[cd]indene-6-carboxylic acid sodium salt] | – |
| 2 | 0.5 | N[C@@H](C(=O)N1C[C@H]2CC(COC(=O)NCc3ccncc3)=C(C(=O)O)N3C(=O)[C@@H]1[C@@H]23)c1ccccc1 [100(d), (1aS,3aR,6bR)-2-[(R)-2-phenyl-glycyl]-1-oxo-5-(pyridin-4-ylmethylcarbamoyloxymethyl)-1a,2,3,3a,4,6b-hexahydro-1H-2,6a-diazacyclobut[cd]indene-6-carboxylic acid hydrochloride] | – |

Continued, molecule first:

| SMILES | MIC C. freundii 1982 (D) [1, 2] [µg/mL] | MIC E. coli 1346 (E) (E. coli 1346; Table 4) [µg/mL] | other results |
| --- | --- | --- | --- |
| O=C(O)CC1=C(C(=O)O)N2C(=O)[C@@H]3[C@H]2[C@H](C1)CN3C(=O)Nc1ccc(O)cc1 [13(a), (1aS,3aR,6bR)-5-carboxymethyl-2-(4-hydroxy-phenycarbamoyl)-1-oxo-1a,2,3,3a,4,6b-hexahydro-1H-2,6a-diazacyclobut[cd]indene-6-carboxylic acid sodium salt] | – | – | MIC C. freundii 1982 [1, 3]: 1 µg/mL; MIC E. coli 1346 (E. coli 1346): 4 µg/mL |
| NC(=O)CSC1=C(C(=O)O)N2C(=O)[C@@H]3[C@H]2[C@H](C1)CN3C(=O)C(F)(F)F [3(al), (1aS,3aR,6bR)-5-Carbamoylmethylsulphanyl-1-oxo-2-trifluoroacetyl-1a,2,3,3a,4,6b-hexahydro-1H-2,6a-diazacyclobut[cd]indene-6-carboxylic acid sodium salt] | 2 | 8 | – |
| O=C(O)C1=C(CO)S[C@@H]2CN(C(=O)Nc3ccc(O)cc3)[C@@H]3C(=O)N1[C@@H]32 [41(d) Byproduct] | 1 | > 32 | – |
| O=C(O)C1=C(CSc2ccncc2)S[C@@H]2CN(C(=O)Nc3ccc(O)cc3)[C@@H]3C(=O)N1[C@@H]32 [41(b), (1aS,3aR,6bS)-2-(4-Hydroxy-phenylcarbamoyl)-1-oxo-5-(pyridin-4-ylsulphanylmethyl)-4-thia-1,1a,2,3,3a,6b-hexahydro-2,6a-diazacyclobut[cd]indene-6-carboxylic acid sodium salt] | 4 | > 32 | – |
| CC(=O)N1C[C@H]2CC(COC(N)=O)=C(C(=O)O)N3C(=O)[C@@H]1[C@@H]23 [58(a), (1aS,3aR,6bR)-2-Acetyl-5-carbamoyloxymethyl-1-oxo-1a,2,3,3a,4,6b-hexahydro-1H-2,6a-diazacyclobut[cd]indene-6-carboxylic acid sodium salt] | 2 | > 32 | – |
| Cn1nnnc1SCC1=C(C(=O)O)N2C(=O)[C@@H]3[C@H]2[C@@H](CN3C(=O)Nc2ccc(O)cc2)O1 [31(h), (1aS,3aR,6bS)-2-(4-hydroxy-phenylcarbamoyl)-5-(1-methyl-1H-tetrazol-5-ylsulphanylmethyl)-1-oxo-1,1a,2,3,3a,6b-hexahydro-4-oxa-2,6a-diazacyclobut[cd]indene-6-carboxylic acid sodium salt] | 0.5 | 8 | – |
| CC(=O)Nc1nnc(SCC2=C(C(=O)O)N3C(=O)[C@@H]4[C@H]3[C@H](C2)CN4C(C)=O)s1 [19(j), (1aS,3aR,6bR)-2-Acetyl-5-(5-acetylamino-1,3,4-thiadiazol-2-ylsulphanylmethyl)-1-oxo-1a,2,3,3a,4,6b-hexahydro-1H-2,6a-diazacyclobut[cd]indene-6-carboxylic acid sodium salt] | 2 | 0.5 | – |
| CC(=O)N1C[C@H]2OC(CSc3nnnn3CC(N)=O)=C(C(=O)O)N3C(=O)[C@@H]1[C@@H]23 [32(e), (1aS,3aR,6bS)-2-Acetyl-5-(1-carbamoylmethyl-1H-tetrazol-5-ylsulphanylmethyl)-1-oxo-1,1a,2,3,3a,6b-hexahydro-4-oxa-2,6a-diazacyclobut[cd]indene-6-carboxylic acid sodium salt] | 2 | 4 | – |
| O=C(O)C1=C(CSc2nnnn2CC(=O)N2CCOCC2)O[C@@H]2CN[C@@H]3C(=O)N1[C@@H]32 [29(l), (1aS,3aR,6bS)-5-(1-(2-Morpholin-4-yl-2-oxo-ethyl)-1H-tetrazol-5-ylsulphanylmethyl)-1-oxo-1,1a,2,3,3a,6 b-hexahydro-4-oxa-2,6a-diazacyclobut[cd]indene-6-carboxylic acid] | 32 | > 32 | – |
| CO/N=C(\C(=O)N1C[C@H]2CC(Sc3nnnn3C)=C(C(=O)O)N3C(=O)[C@@H]1[C@@H]23)c1csc(N)n1 [Example 7, (Z)-(1aS,3aR,6bR)-2-[(2-Amino-thiazol-4-yl)-methoxyiminoacetyl]-1-oxo-5-(1-methyl-1H-tetrazol-5-ylsulphanyl)-1a,2,3,3a,4,6b-hexahydro-1H-2,6a-diazacyclobut[cd]indene-6-carboxylic acid sodium salt] | – | – | MIC C. freundii 1982 [1, 3]: 16 µg/mL; MIC E. coli 1346 (E. coli 1346): 64 µg/mL |
| O=C(O)C1=C(CSc2ccnc3c2CCC3)S[C@@H]2CN(C(=O)Nc3ccc(O)cc3)[C@@H]3C(=O)N1[C@@H]32 [41(a), (1aS,3aR,6bS)-2-(4-Hydroxy-phenylcarbamoyl)-5-(6,7-dihydro-5H-1-pyrindin-4-ylsulphanylmethyl)-1-oxo-4-thia-1,1a,2,3,3a,6b-hexahydro-2,6a-diazacyclobut[cd]indene-6-carboxylic acid sodium salt] | 2 | > 32 | – |
| Nc1nnc(SCC2=C(C(=O)O)N3C(=O)[C@@H]4[C@H]3[C@H](C2)CN4C(=O)C(F)(F)F)s1 [19(h), (1aS,3aR,6bR)-5-(5-Amino-1,3,4-thiadiazol-2-ylsulphanylmethyl)-1-oxo-2-trifluoroacetyl-1a,2,3,3a,4,6b-hexahydro-1H-2,6a-diaza-cyclobut[cd]indene-6-carboxylic acid sodium salt] | 0.5 | 2 | – |
| NC(=O)OCC1=C(C(=O)O)N2C(=O)[C@@H]3[C@H]2[C@H](C1)CN3C(=O)Nc1ccc(O)cc1 [27(a), (1aS,3aR,6bR)-5-Carbamoyloxymethyl-2-(4-hydroxyphenylcarbamoyl)-1-oxo-1a,2,3,3a,4,6b-hexahydro-1H-2,6a-diazacyclobut[cd]indene-6-carboxylic add sodium salt] | – | – | MIC C. freundii 1982 (D) ([1]; Table 5, particularly preferred products, 1:4 combination with ceftriaxone): ≤ 0.06 µg/mL; MIC E. coli 1346 (E) (E. coli 1346; Table 5, particularly preferred products): > 32 µg/mL |
| O=C(O)C1=C(Sc2ccncc2)C[C@@H]2CN(C(=O)Nc3ccc(O)cc3)[C@@H]3C(=O)N1[C@H]23 [3(o), (1aS,3aR,6bR)-2-(4-Hydroxy-phenylcarbamoyl)-1-oxo-5-(pyridin-4-ylsulphanyl)-1a,2,3,3a,4,6b-hexahydro-1H-2,6a-diazacyclobut[cd]indene-6-carboxylic acid sodium salt] | 1 | > 32 | – |
